According to patent publication US20210275657A1, “NEOANTIGENS AND USES THEREOF” (BioNTech US Inc., priority 2018, published 2021):
Each block holds one compound with its values, some of them ahead of it. Where no end group is shown, it is not given here.

Legend:
[1] = test system: indicated HLA alleles; assay: Stability of mutant BTK neopeptides with the HLA alleles; type: binding, human; settings: BTK_C481S
Method: (§1) Multiple peptides containing neoepitopes in the table below were either expressed or loaded onto antigen presenting cells. Mass spectrometry was then performed and the affinity of the neoepitopes for indicated HLA alleles were determined, and the stability of the neoepitopes with the HLA alleles were determined.

[2] = target: indicated HLA alleles; assay: Affinity of GATA3 neoORF neoepitopes for the indicated HLA alleles (Example 9, Table 4); type: binding, human; settings: read-out: Observed MHC affinity
Method: (§2) Multiple peptides containing the neoepitopes in Table 4 below were expressed or loaded onto antigen presenting cells (APCs). Mass spectrometry was then performed and the affinity of the neoepitopes for the indicated HLA alleles and stability of the neoepitopes with the HLA alleles was determined.

[3] = test system: indicated HLA alleles; assay: Stability of GATA3 neoORF neoepitopes with the HLA alleles (Example 9, Table 4); type: binding, human
Method: as §2

[4] = target: HLA-B08:01 (Homo sapiens, UniProt P01889, A93T/A95T/D138N/E176V/E187T/K202T/Q94N/R180D/S35A/V36M/Y33D/Y91F); assay: Stability measurements, pMHC-I dissociation with 125I light chain (Example 20); type: binding
Method: (§3) To measure the binding stability of peptides to Class I MHC, synthetic genes encoding biotinylated MHC-I heavy and light chains are expressed in E. coli and purified from inclusion bodies using standard methods. […] These reactions were carried out in streptavidin coated microplates to bind the biotinylated MHC-I heavy chains to the surface and allow measurement of radiolabeled light chain to monitor complex formation. Dissociation was initiated by addition of higher concentrations of unlabeled light-chain and incubation at 37° C. Stability was defined as the length of time in hours it takes for half of the complexes to dissociate, as measured by scintillation counts. Duplicate measurements were performed. The average of the two measurements was taken as the stability.

[5] = target: HLA-A02:01 (Homo sapiens, UniProt P04439, D140Y/D185E/D98H/E176V/E277Q/G131W/G231S/I119V/I121R/I166T/I218V/L300P/L318F/N151K/N90K/P208A/P217A/Q86G/Q94H/R138H/R169H/T345S); assay: as above; type: binding
Method: as §3

[6] = test system: indicated HLA alleles; assay: Stability of mutant EGFR neopeptides with the HLA alleles; type: binding, human
Method: as §1

[7] = target: indicated HLA alleles; assay: Affinity of mutant EGFR neopeptides for indicated HLA alleles; type: binding, human

Compound: CSCC[C@H](N)C(=O)N[C@@H](C)C(=O)N[C@@H](CC(N)=O)C(=O)NCC(=O)N[C@@H](CO)C(=O)N[C@@H](CC(C)C)C(=O)N[C@@H](CC(C)C)C(=O)N[C@@H](CC(N)=O)C(=O)N[C@@H](Cc1ccc(O)cc1)C(=O)N[C@@H](CC(C)C)C(=O)O
Stability (1/2 hr) ([1]; HLA A02.01): 0 h
Stability (1/2 hr) ([1]; HLA B07.02): 0 h
Stability (1/2 hr) ([1]; HLA B08.01): 0 h

Kd ([2]; Allele A02.01): 8 nM
Compound: AIQPVLWTT
Observed MHC stability ([3]; Allele A02.01): 1.5 h

Compound: CC[C@H](C)[C@H](NC(=O)[C@H](CCCCN)NC(=O)[C@H](CO)NC(=O)[C@H](CCC(=O)O)NC(=O)[C@H](C)NC(=O)[C@H](CCCCN)NC(=O)[C@H](CC(C)C)NC(=O)[C@H](Cc1ccccc1)NC(=O)[C@H](CCSC)NC(=O)[C@@H](N)Cc1ccc(O)cc1)C(=O)O
Experiment 1 half-life [4]: 24 min
Experiment 2 half-life [4]: 30 min
Average half-life ([4]; average of experiments 1 and 2): 24 min
Experiment 1 half-life [5]: 36 min
Experiment 2 half-life [5]: 36 min
Average half-life ([5]; average of experiments 1 and 2): 36 min
Observed MHC stability ([3]; Allele A02.01): 0.6 h
Observed MHC stability ([3]; Allele A24:02): 1.2 h
Observed MHC stability ([3]; Allele B08:01): 0.4 h

Kd ([2]; Allele A24:02): 332 nM
Compound: MFLKAESKI
Observed MHC stability ([3]; Allele A24:02): 0.2 h

Kd ([7]; EGFR_T790M, HLA A02.01): 1210 nM
Compound: IMQLMPFGC
Stability (1/2 hr) ([6]; EGFR_T790M, HLA A02.01): 0.3701 h

Kd ([7]; EGFR_T790M, HLA A02.01): 132 nM
Compound: CC[C@H](C)[C@H](NC(=O)[C@@H](N)CC(C)C)C(=O)N[C@@H](CCSC)C(=O)N[C@@H](CCC(N)=O)C(=O)N[C@@H](CC(C)C)C(=O)N[C@@H](CCSC)C(=O)N1CCC[C@H]1C(=O)N[C@@H](Cc1ccccc1)C(=O)NCC(=O)N[C@@H](CS)C(=O)O
Stability (1/2 hr) ([6]; EGFR_T790M, HLA A02.01): 0.3813 h

Compound: CC[C@H](C)[C@H](NC(=O)[C@H](CC(C)C)NC(=O)[C@@H](N)CCC(N)=O)C(=O)N[C@@H](CCSC)C(=O)N[C@@H](CCC(N)=O)C(=O)N[C@@H](CC(C)C)C(=O)N[C@@H](CCSC)C(=O)N1CCC[C@H]1C(=O)N[C@@H](Cc1ccccc1)C(=O)O
Stability (1/2 hr) ([6]; EGFR_T790M, HLA A02.01): 0.3407 h
Stability (1/2 hr) ([6]; EGFR_T790M, HLA A24.02): 0.3687 h
Stability (1/2 hr) ([6]; EGFR_T790M, HLA B08.01): 0 h

Compound: CC[C@H](C)[C@H](NC(=O)[C@H](CC(C)C)NC(=O)[C@H](CCC(N)=O)NC(=O)[C@@H](NC(=O)[C@@H](NC(=O)[C@H](CO)NC(=O)[C@@H](NC(=O)[C@H](CC(C)C)NC(=O)[C@@H](N)CS)[C@@H](C)O)[C@@H](C)O)C(C)C)C(=O)N[C@@H](CCSC)C(=O)O
Stability (1/2 hr) ([6]; EGFR T790M, HLA A01.01): 0 h
Stability (1/2 hr) ([6]; EGFR_T790M, HLA A02.01): 0 h
Kd ([7]; EGFR T790M, HLA A01.01): 8280 nM
Kd ([7]; EGFR_T790M, HLA A02.01): 537 nM

Compound: CSCC[C@H](NC(=O)[C@H](CC(C)C)NC(=O)[C@H](CCC(N)=O)NC(=O)[C@@H](N)CCSC)C(=O)N1CCC[C@H]1C(=O)N[C@@H](Cc1ccccc1)C(=O)NCC(=O)N[C@@H](CS)C(=O)N[C@@H](CC(C)C)C(=O)O
Stability (1/2 hr) ([6]; EGFR_T790M, HLA A02.01): 0.3683 h
Stability (1/2 hr) ([6]; EGFR_T790M, HLA B07.02): 0 h
Stability (1/2 hr) ([6]; EGFR_T790M, HLA B08.01): 0 h

Compound: LTSTVQLIM
Stability (1/2 hr) ([6]; EGFR T790M, HLA A01.01): 0.1037 h
Kd ([7]; EGFR T790M, HLA A01.01): 2890 nM

Compound: CSCC[C@H](NC(=O)[C@H](CC(C)C)NC(=O)[C@H](CCC(N)=O)NC(=O)[C@@H](N)CCSC)C(=O)N1CCC[C@H]1C(=O)N[C@@H](Cc1ccccc1)C(=O)NCC(=O)N[C@@H](CS)C(=O)N[C@@H](CC(C)C)C(=O)N[C@@H](CC(C)C)C(=O)O
Stability (1/2 hr) ([6]; EGFR_T790M, HLA A02.01): 0.3811 h
Stability (1/2 hr) ([6]; EGFR_T790M, HLA A24.02): 0 h
Stability (1/2 hr) ([6]; EGFR_T790M, HLA B08.01): 0 h

Compound: STVQLIMQL
Stability (1/2 hr) ([6]; EGFR_T790M, HLA A02.01): 0 h
Kd ([7]; EGFR_T790M, HLA A02.01): 7260 nM
